PMC12738789, “Synthesis of an enhanced nanobiocatalyst system from Aspergillus niger as single green source” (Scientific Reports, 2025)

Test system: T1, Aspergillus niger ATCC 16,878 lipase
T1 construct: gene lipA
Assay: spectrophotometric p-nitrophenol release at […] nm, nonlinear Michaelis-Menten fit
Type: biochemical
Settings: free enzyme; 0.1-1 mM pNPP; standard assay 0.1 M potassium phosphate pH 7.5, 37 °C, 2% Triton X-100

Structure (SMILES): CCCCCCCCCCCCCCCC(=O)Oc1ccc([N+](=O)[O-])cc1 [4-nitrophenyl palmitate]
- Km: 147 µM
